According to patent publication US5904915A, “Method of diagnosing pathological state of tumor cells using a diagnostic agent for glycometabolic function” (Nihon Medi-Physics Co., Ltd., priority 1996, dated 1999):
“Also recorded” adds a separate entry of the source. Where two headings read alike, the source gives them in different places. Blank lines part the entries; values can stand above or below the compound they belong to.

Tests used:
LS180 cells [1] = assay: Effect of IAA (hexokinase inhibition) on accumulation and metabolism of FDG and AFDG; format: cell-based, human
From the text: (§1) Then, cells were washed three times with a cold PBS, lysed with 50% ethanol and assayed for metabolites.

LS180 cells [2] = assay: Effect of administered dose of AFDG on its intracellular accumulation; format: cell-based, human; conditions: increase of the dose of AFDG
LS180 cells [3] = assay: Effect of DNP on accumulation and metabolism of FDG and AFDG; format: cell-based, human
From the text: as §1

LS180 cells [4] = assay: Time-course accumulation of FDG and AFDG in LS180 tumor cells; format: cell-based, human
Method: LS180 cells were stripped off from the petri dish using trypsin, inoculated on a plate having 24 holes at a concentration of 20×10^4 cells/ml and subjected to the uptake experiment after 24 hours. […] Radioactivity of the lysed solution was measured by an Autowell gamma counter (ARC-2000, manufactured by Aloka corporation).

LS180 cells [5] = assay: Effect of AFDG administration on accumulation of glucose; format: cell-based, human; conditions: amount used in this experiment
LS180 cells [6] = assay: Effect of extracellular glucose concentration on accumulation and metabolism of FDG and AFDG; format: cell-based, human
Method: Then, cells were washed three times with a cold PBS, lysed with 50% ethanol and the lysate was assayed for metabolites.

LS180 cells [7] = assay: Temperature dependence of intracellular accumulation of AFDG; format: cell-based, human; conditions: 60 minutes after administration, 5 μCi
Method: In order to study the temperature dependence of intracellular accumulation of AFDG, an uptake experiment was conducted different from Experiment 1. Cells were suspended in a culture medium at a concentration of 1×10^6 cells/ml and incubated in portions of 1 ml at 4° C. or 37° C. for 15 minutes. Then, 5 μCi of AFDG was added and incubated for 2, 5, 10, 30 and 60 minutes, respectively. At every determined times, cells were centrifuged to make a pellet, which was washed with a cold PBS. After washing twice, the pellet was lysed by 0.2N NaOH solution and assayed for radioactivity.

LS180 cells [8] = assay: Metabolism of AFDG and FDG in LS180 cells (TLC of metabolites); format: cell-based, human
Method: After carrying out an experiment according to Experiment 1, cells were stripped off from the plate using 100 μl of 50% ethanol and the solution was centrifuged at 15000 rpm. A 25 μl aliquot of supernatant was subjected to analysis of metabolites by thin-layer chromatography (TLC). The eluent was acetonitrile/water=95/5, and the carrier was silica gel 60. The plate after development was cut at 5 mm intervals and assayed for radioisotope with a gammer counter. Total radioactivity of respective metabolites were calculated from the ratio of metabolites obtained in TLC.

hexokinase = conditions: 5 μM IAA, 37° C.; inferred from accumulation of FDG
From the text: as §1

GLUT = assay: Effect of DNP on rate of uptake of 3-OMG (GLUT transport) in LS180 cells; format: cell-based, human
From the text: While it is known that 2,4-dinitrophenol, an uncoupling agent for mitochondrion, causes expression of GLUT on cell membrane to normal cells by a transient decrease of intracellular ATP as a trigger, it has not been confirmed that it has a similar effect on tumor cells. Therefore, transport of [H-3]-3-O-methylglucose in the DNP-treated tumor cells was studied for the case in which GLUT was inhibited by cytocharasin B and for the case in which it was not inhibited, respectively. [H-3]-3-O-methylglucose is a D-glucose derivative which is not subjected to metabolism such as phosphorylation after take up into cells and therefore can suitably be used in an experiment for studying transport ability of GLUT. In the case of DNP treatment, accumulation of [H-3]-3-O-methylglucose was increased by about 70% as compared with the case of no treatment (Table 1), and therefore it was considered that the amount of GLUT expressed on the cell membrane was increased by 70% with the treatment by DNP. The increase in amount was by far smaller than the increase described for normal cells. This is due to the fact that the amount of GLUT expressed on the tumor cell membrane is by far greater than the amount for normal cells.
For studying uptake of [H-3 ]-3-O-methylglucose (3-OMG) into cells excluding nonspecific bonding, usually cytocharasin B is used. After incubating 10^6 LS180 cells in a medium containing 200 μM DNP placed in a plate having 24 holes, the medium was changed to a medium containing 5 μCi 3-OMG and 200 μM […], respectively, and additionally 50 μM cytocharasin B or a medium without cytocharasin B and the respective cultures were incubated for 60 seconds. Immediately after, the medium was removed and cells were washed three times with a cold PBS containing 0.1 mM phloretin and lysed with 500 μl of 0.2 N NaOH solution. After lysis, a 200 μl portion was used for quantitative determination of proteins and the remaining 300 μl was mixed with a scintillator and radioactivity was measured by a liquid scintillation counter (LSC 5000, manufactured by Aloka corporation). The taken-up amount of 3-OMG which may be inhibited by cytocharasin B was integrated from the difference in mean values of 10 holes in the plate for 3-OMG uptake without cytocharasin B. The results of the experiment are shown in Table 1.

- FDG-6P derived from AFDG in the presence of DNP (LS180 cells [3]; 200 μM DNP, 37° C.): decreased
- mechanism of uptake into cells (LS180 cells [4]; concluded from the experiments): taken up by simple diffusion
- presence of FDG and FDG-6P in cells after uptake of AFDG (LS180 cells [8]; 5 minutes after administration): substantially absent
- production of FDG-6P from AFDG relative to that from FDG (LS180 cells [8]; 60 minutes after administration): 1.63 times
- FDG-6P share of total intracellular radioactivity (sum of AFDG, FDG and FDG-6P) (LS180 cells [8]; 60 minutes after administration of AFDG): about 50%
- stability in the extracellular medium (LS180 cells [8]; extracellular medium): stable
- velocity of hydrolysis of AFDG compared with phosphorylation of FDG (LS180 cells [8]; intracellular): greater
- accumulation of AFDG and that of FDG after administration of AFDG (LS180 cells [8]; time course after 5 minutes): followed a constant course
- accumulation of FDG-6P after administration of AFDG (LS180 cells [8]; time course after 5 minutes): increased linearly with passage of time
SMILES: CC(=O)OC[C@H]1OC(OC(C)=O)[C@H]([18F])[C@@H](OC(C)=O)[C@@H]1OC(C)=O (stereo partly shown) [AFDG, 1,3,4,6-tetra-O-acetyl-2-[F-18]fluorodeoxyglucose]
- intracellular accumulation in the presence of IAA (LS180 cells [1]; 5 μM IAA, 37° C.): remarkably decreased
- change in intracellular accumulation with administered dose (LS180 cells [2]): increased with the increase of the dose of AFDG
- intracellular accumulation in the presence of DNP (LS180 cells [3]; 200 μM DNP, 37° C.): decreased
- accumulation in time course (LS180 cells [4]; LS180 cells, 2 to 60 minutes, 5 μCi): accumulated rapidly in cells in a nonlinear manner
- accumulation of glucose when AFDG was administered (LS180 cells [5]): not inhibited
- production of FDG-6P on doubling glucose concentration in medium (LS180 cells [6]; 11.2 mM vs 22.4 mM glucose, 60 minutes): did not change; also recorded: no change was observed; also recorded: substantially not affected
- intracellular accumulation on doubling glucose concentration in medium (LS180 cells [6]; 11.2 mM vs 22.4 mM glucose, 60 minutes, after AFDG: accumulation of FDG (hydrolysate)): did not change; also recorded: substantially not affected
- accumulation of AFDG at 4° C. relative to that at 37° C. (LS180 cells [7]): one fourth
- hydrolysis of AFDG to FDG in cells (LS180 cells [8]; by esterase, intracellular): quickly hydrolyzed by esterase to FDG and quickly hydrolyzed to form FDG and fast

SMILES: OC[C@H]1OC(O)[C@H]([18F])[C@@H](O)[C@@H]1O (stereo partly shown) [FDG, 2-[F-18]fluorodeoxyglucose, reference compound]
- intracellular accumulation in the presence of IAA (LS180 cells [1]): remarkably decreased
- intracellular accumulation in the presence of DNP (LS180 cells [3]): increased
- activation at 200 µM (LS180 cells [3]; Homo sapiens, LS180, read-out: increase of uptake of FDG with DNP): ~80%
- accumulation in time course (LS180 cells [4]): accumulated and increased almost linearly
- intracellular accumulation on doubling glucose concentration in medium (LS180 cells [6]): decreased

SMILES: O=C(O)CI [IAA, iodoacetate]
- hexokinase activity in the presence of IAA (hexokinase): remarkably decreased

- Difference relative to control, DNP treatment (GLUT; ls180 cells, 200 µM): 1.71
SMILES: CO[C@H]1[C@H](O)[C@@H](CO)OC(O)[C@@H]1O (stereo partly shown) [[H-3]3-OMG, [H-3]-3-O-methylglucose]
- Accumulation of [H-3]3-OMG, Difference, DNP treatment (GLUT; Cytocharasin B absent minus present, 200 μM DNP): 3460 dpm/min/100 μg protein
- Accumulation of [H-3]3-OMG, Difference, Control (GLUT; Cytocharasin B absent minus present, no DNP): 2014 dpm/min/100 μg protein
- Accumulation of [H-3]3-OMG, DNP treatment (GLUT; Cytocharasin B absent, 200 μM DNP): 4763 ± 669 dpm/min/100 μg protein
- Accumulation of [H-3]3-OMG, Control (GLUT; Cytocharasin B absent, no DNP): 3235 ± 307 dpm/min/100 μg protein
- Accumulation of [H-3]3-OMG, DNP treatment (GLUT; Cytocharasin B present (50 μM), 200 μM DNP): 1303 ± 229 dpm/min/100 μg protein
- Accumulation of [H-3]3-OMG, Control (GLUT; Cytocharasin B present (50 μM), no DNP): 1511 ± 231 dpm/min/100 μg protein
- increase of accumulation of [H-3]-3-O-methylglucose with DNP treatment (GLUT; compared with no treatment): about 70%
- Difference relative to control, Control (GLUT; in parentheses, no DNP): 1.00

SMILES: O=[N+]([O-])c1ccc(O)c([N+](=O)[O-])c1 [DNP, 2,4-dinitrophenol]
- increase of amount of GLUT expressed on the cell membrane with DNP (GLUT; inferred from 3-OMG accumulation): 70%
